Measured values reported in US4175125A, “Method for treating methicillin resistant staphylococcus aureus” (Eli Lilly and Company, priority 1978, dated 1979).
In brackets after ≈: the same amount, converted by molar mass. Counter-ions that a name gives are not always drawn. Like-named read-outs stand apart in the source and are kept apart here.

Test system: methicillin-resistant Staphylococcus aureus
Experiment: Gradient plate test (MIC) against methicillin-resistant Staphylococcus aureus
Format: cell-based
Details: for MIC: Staphylococcus aureus
Method: The method used is essentially that described by Bryson and Szybalski in 1952 (Science 116:45-46). The inoculum treatment method used for penicillin resistant Staphylococci was reported by Godzeski et al in Antimicrobial Agents and Chemotherapy, May, 1969, pp. 547-554.
A standard Falcon square plastic petri dish is used. A layer of agar (10 ml.) is poured into one of the square dishes, the dish tipped 5 mm. off the horizontal, and the agar layer allowed to harden in this position. This bottom layer of agar contains the antibiotic, the serum, and/or other material to be tested. The medium is Difco Penassay Agar containing 2 percent agar. We routinely used 4 ml. of human or horse serum for "serum-inactivation" testing. […] Therefore, serum is routinely added only to the bottom layer.
After the bottom, slanted layer of agar medium has hardened, the plate is placed flat and another 10 ml. of medium added and allowed to harden.
The inoculum of resistant Staphylococci, as described, is prepared by diluting the water suspension 1/50 in 0.25 percent agar in sterile water or saline. For Gram negative organisms, an overnight broth culture is diluted 1/50 in the 0.25 percent agar-water. This dilution is thoroughly shaken to evenly suspend the bacteria. To streak the plate, we use a 1 ml. pipet containing an aliquot of the final […] agar dilution. After a little practice, a smooth even stroke of inoculum can be laid down very rapidly. The trick is in the smoothness of the streak--it must be accomplished uniformly and quickly.
After 24 hours incubation at 35°-37° C. the plates are read by simply measuring the length of bacterial growth as a percentage of the entire streak distance which is then converted to the percent of antibiotic concentration in the plate.
Average values of duplicate measurements are calculated and the M.I.C.'s reported are average of 2 streaks on the plate and from 2 to 3 duplicate plates. Eight streaks can be easily placed on each plate. If sharp end points are not obtained, the middle concentration between the beginning of inhibition of the streak to the end of growth is measured. The concentration of the antibiotic under examination is varied from plate to plate in a series as follows: […]
This method of screening penicillins and cephalosporins is quite satisfactory. Control plates containing penicillin and staphcillin or prostaphlin, or other control antibiotic, are used daily for the resistant staphylococcal activity screen. The gradient plate method has shown differences between antibiotics that were not apparent by any other methods of screening. […] We believe that the gradient plate screen is more sensitive to small differences between related antibiotics than other methods and pictures of the plates can provide a permanent record. The method also lends itself readily to modification of specific purposes--e.g., cross gradients.
The compounds listed below are examples of compounds useful in the method of this invention. After the compound name there is given in parentheses, where tested, the minimum inhibitory concentrations (MIC) in micrograms per milliliter (μg/ml) for the compound in the above described gradient plate procedure test against methicillin-resistant Staphylococcus aureus, (in the absence of blood serum/in the presence of 20 percent blood serum).
and pharmaceutically acceptable salts thereof. The abbreviation "s.z." means skip zones.

[1] = in the absence of blood serum, read-out: minimum inhibitory concentration (MIC)
[2] = in the presence of 20 percent blood serum
[3] = in the presence of 20 percent blood serum, read-out: minimum inhibitory concentration (MIC)

Structure (SMILES) | MIC [1] | minimum inhibitory concentration (MIC) [2] | MIC [3] | MIC (read-out: minimum inhibitory concentration (MIC), in the absence of blood serum) | MIC (read-out: minimum inhibitory concentration (MIC), in the presence of 20 percent blood serum)
Cn1nnnc1SCC1=C(C(=O)O)N2C(=O)C(NC(=O)CSc3cc(Cl)cc(Cl)c3)C2SC1 (centres unmarked) [3-[1'-methyl-1'H-tetrazol-5'-ylthiomethyl]-7-[2'-(3",5"-dichlorophenylthio)acetamido]-3-cephem-4-carboxylic acid, dicyclohexylamine salt] | 2.2 µg/mL | skip zones |  |  | 
O=C(CSc1cc(Cl)ccc1Cl)NC1C(=O)N2C(C(=O)O)=C(CSc3nnc(-c4ccc([N+](=O)[O-])cc4)o3)CSC12 (centres unmarked) [3-[5'-(p-nitrophenyl)-1',3',4'-oxadiazol-2'-ylthiomethyl]-7-[2'-(2",5"-dichlorophenylthio)actamido]-3-cephem-4-carboxylic acid, sodium salt] | 3.9 µg/mL |  | > 20 µg/mL |  | 
COc1ccc(-c2nnc(SCC3=C(C(=O)O)N4C(=O)C(NC(=O)CSc5cc(Cl)ccc5Cl)C4SC3)o2)cc1 (centres unmarked) [3-[5'-(p-methoxyphenyl)-1',3',4'-oxadiazol-5'-ylthiomethyl]-7-[2'-(2",5"-dichlorophenylthio)acetamido]-3-cephem-4-carboxylic acid, sodium salt] | 4.4 µg/mL |  |  |  | 
NC(=O)OCC1=C(C(=O)O)N2C(=O)C(NC(=O)CSc3cc(Cl)ccc3Cl)[C@H]2SC1 (some centres unmarked) [3-carbamyloxymethyl-7-[2'-(2",5"-dichlorophenylthio)acetamido]-3-cephem-4-carboxylic acid] | 4.1 µg/mL (≈ 8.33 µM) |  | 1.7 µg/mL |  | 
CC(=O)OCC1=C(C(=O)O)N2C(=O)C(NC(=O)CSc3cccc(F)c3)C2SC1 (centres unmarked) [7-[2'-(3"-fluorophenylthio)acetamido]cephalosporanic acid] | 10.6 µg/mL (≈ 24.1 µM) |  | 9.3 µg/mL |  | 
Cn1nnnc1SCC1=C(C(=O)O)N2C(=O)C(NC(=O)CSc3cc(Cl)ccc3Cl)C2SC1 (centres unmarked) [3-(1'-methyl-1'H-tetrazol-5'-ylthiomethyl)-7-[2'-(2",5"-dichlorophenylthio)acetamido]-3-cephem-4-carboxylic acid, dicyclohexylamine salt] | 2.3 µg/mL | skip zones |  |  | 
Cc1nnc(SCC2=C(C(=O)O)N3C(=O)C(NC(=O)CSc4cc(F)c(Cl)cc4Cl)C3SC2)s1 (centres unmarked) [3-(5'-methyl-1',3',4'-thiadiazol-2'-ylthiomethyl)-7-[2'-(2",4"-dichloro-5"- fluorophenylthio)acetamido]-3-cephem-4-carboxylic acid, sodium salt] | 2.3 µg/mL |  | > 20 µg/mL |  | 
CC(=O)OCC1=C(C(=O)O)N2C(=O)C(NC(=O)CSc3cc(F)c(Cl)cc3Cl)C2SC1 (centres unmarked) [Example 4, 7(2,4-Dichloro-5-fluoro-phenylthioacetamido)cephalosporanic acid] | 3 µg/mL (≈ 5.89 µM) |  | > 20 µg/mL |  | 
CC(=O)OCC1=C(C(=O)O)N2C(=O)C(NC(=O)CSc3cccc(Cl)c3)C2SC1 (centres unmarked) [7-m-Chlorophenylthioacetamidocephalosporanic acid, potassium salt] | 2 µg/mL |  | 5.2 µg/mL |  | 
CSCC1=C(C(=O)[O-])N2C(=O)C(NC(=O)CSc3cc(Cl)ccc3Cl)[C@H]2SC1.[Na+] (some centres unmarked) [3-methylthiomethyl-7-[2'-(2",5"-dichlorophenylthio)acetamido]-3-cephem-4-carboxylic acid, sodium salt] |  |  |  | 12 µg/mL | 14.4 µg/mL
Cc1nnc(SCC2=C(C(=O)O)N3C(=O)C(NC(=O)CSc4ccc(Cl)c(Cl)c4)C3SC2)s1 (centres unmarked) [3-(5'-methyl-1',3',4'-thiadiazol-2'-ylthiomethyl)-7-[2'-(3",4"-dichlorophenylthio)acetamido]-3-cephem-4-carboxylic acid, dicyclohexylamine salt] | 1.2 µg/mL |  | > 20 µg/mL |  | 
Cn1nnnc1SCC1=C(C(=O)O)N2C(=O)C(NC(=O)CSc3ccc(Cl)c(Cl)c3)[C@H]2SC1 (some centres unmarked) [Example 5, 7-[2-(3,4-dichlorophenylthio)acetamido]-3-(1-methyltetrazol-5-yl-thiomethyl)-3-cephem-4-carboxylic acid] | 2.4 µg/mL (≈ 4.38 µM) |  | > 20 µg/mL |  | 
Cn1nnnc1SCC1=C(C(=O)O)N2C(=O)C(NC(=O)CSc3cc(F)c(Cl)cc3Cl)C2SC1 (centres unmarked) [3-(1'-methyl-1'H-tetrazol-5'-ylthiomethyl)-7-[2'-[2",4"-dichloro-5"-fluorophenylthio)acetamido]-3-cephem-4-carboxylic acid, dicyclohexylamine salt] | 1.9 µg/mL |  | > 20 µg/mL |  | 
Cc1nnc(SCC2=C(C(=O)O)N3C(=O)C(NC(=O)CSc4cc(Cl)ccc4Cl)C3SC2)s1 (centres unmarked) [3-(5'-methyl-1',3',4'-thiadiazol-2'-ylthiomethyl)-7-[2'-(2",5"-dichlorophenylthio)acetamido]-3-cephem-4-carboxylic acid, sodium salt] | 1.8 µg/mL |  | > 1 µg/mL |  | 
CNC(=O)OCC1=C(C(=O)O)N2C(=O)C(NC(=O)CSc3cc(Cl)ccc3Cl)C2SC1 (centres unmarked) [Example 7, 7(2,5-dichlorophenylmercaptoacetamido)-3-(N-methylcarbamoyloxymethyl)-Δ^3-cephalosphoranic acid] | 5.5 µg/mL (≈ 10.9 µM) |  | 18.2 µg/mL |  | 
O=C(CSc1cc(Cl)ccc1Cl)NC1C(=O)N2C(C(=O)O)=C(CSc3nnc(-c4ccccc4)o3)CSC12 (centres unmarked) [3-[5'-phenyl-1',3',4'-oxadiazol-2'-ylthiomethyl]-7-[2'-(2"-5"-dichlorophenylthio)acetamido]-3-cephem-4-carboxylic acid, dicyclohexylamine salt] | 0.8 µg/mL |  | > 1 µg/mL |  | 
Cc1nnc(SCC2=C(C(=O)O)N3C(=O)C(NC(=O)CSc4cc(Cl)cc(Cl)c4)C3SC2)s1 (centres unmarked) [3-(5'-methyl-1',3',4'-thiadiazol-2'-ylthiomethyl)-7-[2'-(3",5"-dichlorophenylthio)acetamido]-3-cephem-4-carboxylic acid, sodium salt] | 4.5 µg/mL |  | > 20 µg/mL |  | 
O=C(CSc1cc(Cl)ccc1Cl)NC1C(=O)N2C(C(=O)O)=C(CSc3nn[nH]n3)CSC12 (centres unmarked) [3-(1'H-tetrazol-5'-ylthiomethyl)-7-[2'-(2",5"-dichlorophenylthio)acetamido]-3-cephem-4-carboxylic acid] | 6.8 µg/mL (≈ 12.7 µM) |  | > 1 µg/mL |  | 
